Experimental data reported in ChEMBL document CHEMBL4043145, “Pyridine-pyrimidine amides that prevent HGF-induced epithelial scattering by two distinct mechanisms” (Bioorg Med Chem Lett, 2017).
Values belong to the compound of their own block, whether it stands above or below them. Active and inactive are the calls of the source. No cut-off for these calls is given here.

Experiments:
[1] = (§1) Inhibition of bovine brain tubulin polymerization; parameters: species or system Bos taurus
Bos taurus [2] = species on record: Bos taurus; assay: as §1
Bos taurus [3] = species on record: Bos taurus; assay: Inhibition of colchicine binding to bovine brain tubulin up to 25 uM by fluorescence based assay relative to control
[4] = Binding affinity to tubulin (unknown origin) by isothermal titration calorimetric analysis; parameters: species or system Homo sapiens
Homo sapiens = species on record: Homo sapiens; assay: Binding affinity to tubulin (unknown origin) by CD spectroscopic method
A2780 [5] = assay: Cell cycle arrest in human A2780 cells assessed as accumulation at S phase at 300 nM (reference value: 21.16 to 22.81%); format: functional
A2780 [6] = assay: Cell cycle arrest in human A2780 cells assessed as accumulation at G1 phase at 300 nM (reference value: 55.26 to 55.66%); format: functional
A2780 [7] = assay: Cell cycle arrest in human A2780 cells assessed as accumulation at G2/M phase at 300 nM (reference value: 19.42 to 20.43%); format: functional
MCF7 [8] = assay: Cell cycle arrest in human MCF7 cells assessed as accumulation at G1 phase at 300 nM (reference value: 47.47 to 52.3%); format: functional
MCF7 [9] = assay: Cell cycle arrest in human MCF7 cells assessed as accumulation at S phase at 300 nM (reference value: 25.36 to 26.82%); format: functional
MCF7 [10] = assay: Cell cycle arrest in human MCF7 cells assessed as accumulation at G2/M phase at 300 nM (reference value: 20.06 to 22.33%); format: functional
PC-3 [11] = assay: Cell cycle arrest in human p53-null PC3 cells assessed as accumulation at G1 phase at 300 nM (reference value: 50.77 to 51.16%); format: functional
PC-3 [12] = assay: Cell cycle arrest in human p53-null PC3 cells assessed as accumulation at S phase at 300 nM (reference value: 29.08 to 29.33%); format: functional
PC-3 [13] = assay: Cell cycle arrest in human p53-null PC3 cells assessed as accumulation at G2/M phase at 300 nM (reference value: 18.37 to 18.96%); format: functional
MFE-280 [14] = assay: Cell cycle arrest in human MFE280 cells assessed as accumulation at G1 phase at 300 nM (reference value: 64.99 to 67.86%); format: functional
MFE-280 [15] = assay: Cell cycle arrest in human MFE280 cells assessed as accumulation at S phase at 300 nM (reference value: 14.14 to 15.66%); format: functional
MFE-280 [16] = assay: Cell cycle arrest in human MFE280 cells assessed as accumulation at G2/M phase at 300 nM (reference value: 16.43 to 17.9%); format: functional
MFE-296 [17] = assay: Cell cycle arrest in human MFE296 cells assessed as accumulation at G1 phase at 300 nM (reference value: 61.05 to 64.87%); format: functional
MFE-296 [18] = assay: Cell cycle arrest in human MFE296 cells assessed as accumulation at S phase at 300 nM (reference value: 16.96 to 19.19%); format: functional
MFE-296 [19] = assay: Cell cycle arrest in human MFE296 cells assessed as accumulation at G2/M phase at 300 nM (reference value: 15.71 to 17.04%); format: functional
T47D [20] = assay: Cell cycle arrest in human T47D cells assessed as accumulation at G1 phase at 300 nM (reference value: 45.5 to 57.8%); format: functional
T47D [21] = assay: Cell cycle arrest in human T47D cells assessed as accumulation at S phase at 300 nM (reference value: 19.89 to 24.55%); format: functional
T47D [22] = assay: Cell cycle arrest in human T47D cells assessed as accumulation at G2/M phase at 300 nM (reference value: 20.58 to 28.8%); format: functional

IC50 [1]: 240 nM | inhibition (Bos taurus [2]): Dose-dependent effect | inhibition (Bos taurus [3]): 70% | Kd [4]: 190 nM | Activity (Homo sapiens): Active
Compound: Cc1ncc(C(=O)Nc2ccc(-c3cccc(S(=O)(=O)C4CC4)c3)cn2)cn1

Compound: CC(=O)O[C@H]1C(=O)[C@@]2(C)[C@H]([C@H](OC(=O)c3ccccc3)[C@]3(O)C[C@H](OC(=O)[C@H](O)[C@@H](NC(=O)c4ccccc4)c4ccccc4)C(C)=C1C3(C)C)[C@]1(OC(C)=O)CO[C@@H]1C[C@@H]2O [PACLITAXEL]
Activity (A2780 [5]): 10.42% | Activity (A2780 [6]): 13.37% | Activity (A2780 [7]): 70.7% | Activity (MCF7 [8]): 3.43% | Activity (MCF7 [9]): 7.07% | Activity (MCF7 [10]): 86.54% | Activity (PC-3 [11]): 8.25% | Activity (PC-3 [12]): 20.78% | Activity (PC-3 [13]): 70.82% | Activity (MFE-280 [14]): 34.74% | Activity (MFE-280 [15]): 22.1% | Activity (MFE-280 [16]): 39.59% | Activity (MFE-296 [17]): 26.72% | Activity (MFE-296 [18]): 19.73% | Activity (MFE-296 [19]): 51.88% | Activity (T47D [20]): 30.62% | Activity (T47D [21]): 27.89% | Activity (T47D [22]): 41.49%
